Data set [1] addresses T1, OCT1 (Homo sapiens, UniProt O15245).
T1 sequence (O15245 1-554): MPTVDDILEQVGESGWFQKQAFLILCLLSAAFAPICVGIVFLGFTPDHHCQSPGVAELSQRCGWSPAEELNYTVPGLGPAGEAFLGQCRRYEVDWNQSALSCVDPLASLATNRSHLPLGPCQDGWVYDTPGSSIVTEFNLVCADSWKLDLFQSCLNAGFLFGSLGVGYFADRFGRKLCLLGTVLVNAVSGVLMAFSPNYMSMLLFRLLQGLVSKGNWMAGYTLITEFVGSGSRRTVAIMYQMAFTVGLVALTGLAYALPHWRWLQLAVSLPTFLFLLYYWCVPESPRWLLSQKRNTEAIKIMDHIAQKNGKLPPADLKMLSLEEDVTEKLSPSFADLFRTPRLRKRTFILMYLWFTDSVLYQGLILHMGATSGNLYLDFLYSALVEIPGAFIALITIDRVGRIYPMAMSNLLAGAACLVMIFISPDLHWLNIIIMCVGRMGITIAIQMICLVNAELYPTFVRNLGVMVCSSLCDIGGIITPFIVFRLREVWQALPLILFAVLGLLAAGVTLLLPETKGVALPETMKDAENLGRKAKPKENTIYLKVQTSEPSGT
Put plainly: DDI risk R calculated from IC50 at human OCT1. Particulars: R=1+fup×Iin,max/IC50, cutoff R ≥ 1.1.

For data set [2], the target named is T1, OCT1. In words: Uptake of the cocktail by HEK293 cells overexpressing human OCT1. On the procedure:
(§1) Significance was calculated using Mann–Whitney U test. n = 5–8 independent experiments.

Data set [3] in a line: Pharmacokinetic parameters used for estimating the potential for DDIs. The format is in vivo, human. On the procedure:
Ka was calculated manually based on available pharmacokinetic parameters.

For the next data set, the target named is T2, human OCT1 (hOCT1) (Homo sapiens, UniProt O15245).
T2 sequence (O15245 1-554): T1 sequence (O15245 1-554)
Set-up: expressed in transfected cells; empty vector control pcDNA5; method as in ref column References of Table 2 (Tzvetkov et al, 2018; Morse et al, 2020; Jensen et al, 2020; Meyer et al, 2019, 2022; Wittern et al, 2024 and own unpublished data; Elsby et al, 2017). The note with it: literature values; References of Table 2 (Tzvetkov et al, 2018; Morse et al, 2020; Jensen et al, 2020; Meyer et al, 2019, 2022; Wittern et al, 2024 and own unpublished data; Elsby et al, 2017); cited from earlier work.

Data set [4] concerns OCT1. Particulars: ref Tzvetkov et al, 2018 (fenoterol); Matthaei et al, 2016 (sumatriptan); cited from earlier work.
The conditions of data set [5]: cited from earlier work; for cmax = Imax: dose and route as in Supplemental Table 4, ref Hardman, 2018, fenoterol Tzvetkov et al; for cmax = Imax / fraction unbound: ipratropium Zhang et al, 2023; for fraction unbound: fraction unbound in plasma, ref Hardman, 2018, Lombardo et al (2018), fenoterol Tzvetkov et al; for t1/2: ref Hardman, 2018, fenoterol Tzvetkov et al.

For another data set, the target named is T3, human OCTN1 (hOCTN1) (Homo sapiens, UniProt Q9H015).
T3 construct: expressed in transfected cells
T3 sequence (Q9H015 1-551): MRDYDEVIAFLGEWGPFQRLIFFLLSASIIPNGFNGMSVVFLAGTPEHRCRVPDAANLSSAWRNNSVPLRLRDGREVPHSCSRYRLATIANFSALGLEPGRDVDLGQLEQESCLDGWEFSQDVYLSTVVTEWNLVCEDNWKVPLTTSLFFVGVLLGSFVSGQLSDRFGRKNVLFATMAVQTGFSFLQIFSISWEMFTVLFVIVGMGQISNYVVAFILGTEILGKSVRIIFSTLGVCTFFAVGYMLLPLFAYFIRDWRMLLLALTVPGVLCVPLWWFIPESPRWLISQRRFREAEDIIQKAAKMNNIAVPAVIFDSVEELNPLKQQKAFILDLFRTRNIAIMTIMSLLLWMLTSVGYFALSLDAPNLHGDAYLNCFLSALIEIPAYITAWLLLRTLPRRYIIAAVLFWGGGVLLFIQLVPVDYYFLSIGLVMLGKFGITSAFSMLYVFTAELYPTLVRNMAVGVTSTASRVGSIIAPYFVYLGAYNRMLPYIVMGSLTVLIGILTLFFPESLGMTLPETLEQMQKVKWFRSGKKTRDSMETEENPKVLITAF
In words: Uptake of the extended cocktail by HEK293 cells overexpressing hOCTN1. The note with it: Fig. 6. The data set is classed as in vitro ADME.

The subject of another data set is mOct1. Set-up: method as in ref column References of Table 2 (Morse et al, 2020; Jensen et al, 2020; Meyer et al, 2022). Particulars: literature values; References of Table 2 (Morse et al, 2020; Jensen et al, 2020; Meyer et al, 2022); cited from earlier work.
In a further data set the target is T4, mouse OCT1 (Mus musculus, UniProt O08966).
T4 sequence (O08966 1-556): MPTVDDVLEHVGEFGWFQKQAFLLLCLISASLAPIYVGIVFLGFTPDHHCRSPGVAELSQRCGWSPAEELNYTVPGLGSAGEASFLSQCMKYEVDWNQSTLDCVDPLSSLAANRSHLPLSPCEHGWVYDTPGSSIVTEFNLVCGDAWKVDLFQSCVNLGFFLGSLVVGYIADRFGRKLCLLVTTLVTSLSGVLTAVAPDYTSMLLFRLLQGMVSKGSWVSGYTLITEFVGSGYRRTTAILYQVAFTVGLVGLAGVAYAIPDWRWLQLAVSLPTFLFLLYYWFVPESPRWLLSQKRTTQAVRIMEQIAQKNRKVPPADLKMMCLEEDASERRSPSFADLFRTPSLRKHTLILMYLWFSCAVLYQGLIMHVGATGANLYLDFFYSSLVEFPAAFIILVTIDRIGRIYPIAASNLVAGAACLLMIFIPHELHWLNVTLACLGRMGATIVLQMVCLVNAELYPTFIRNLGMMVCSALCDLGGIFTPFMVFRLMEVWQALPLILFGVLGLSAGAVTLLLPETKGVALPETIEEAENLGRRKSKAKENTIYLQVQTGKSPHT
Put plainly: Uptake of the cocktail by HEK293 cells overexpressing mouse Oct1. Here is the method: as §1

Data set [6] deals with OCT1. The note with it: read-out: inhibitory potency for metformin uptake via OCT1; substrate metformin; ref Ahlin et al, 2011; Panfen et al, 2019; cited from earlier work.
Substrate in data set [7]: O=C(O[C@H]1C[C@H]2CC[C@@H](C1)[N+]21CCCC1)C(O)(c1ccccc1)c1ccccc1
Put plainly: Transport kinetics (KM, vmax) of OCT1-mediated uptake, HEK293 cells overexpressing human OCT1. The format is in vitro ADME. Particulars: mean ± SD, pH 7.4.

Substrate in data set [8]: CC(Cc1ccc(O)cc1)NCC(O)c1cc(O)cc(O)c1
In words: cells, lysate or membranes named. Particulars: mean ± SD, pH 7.4.

The mark [9] stands for this setting: Iin,max=Imax+Fa×ka×D/Qh, Qh 97 L/h, Fa 1, Imax for fenoterol and ipratropium.
[10] abbreviates: unbound maximum inhibitor concentration at the inlet of the liver.
Setting [11] is: other: hOCT1, substrate tested alone.
The mark [12] stands for this setting: other: hOCT1, substrate tested in cocktail.

In the case of `CC(Cc1ccc(O)cc1)NCC(O)c1cc(O)cc(O)c1` (stereo not shown) [Fenoterol, fenoterol], on OCT1 [1], the “DDI risk R, victim drug ipratropium” value is reported as 1.00; the “DDI risk R, victim drug metformin” value is 1.00; the “DDI risk R, victim drug methylnaltrexone” value is given as 1.00; the “DDI risk R, victim drug salbutamol” value is listed as 1.00. Moreover, at OCT1 [1], the “DDI risk R, victim drug sumatriptan” value was 1.00; the “DDI risk R, victim drug trospium” value is listed as 1.00; the “DDI risk R, victim drug zolmitriptan” value is on record as 1.00. For the same molecule, the “transport by OCT1” value on OCT1 [2] (extended cocktail, Fig. 6) was “transported only by OCT1”. Besides, in [3] (setting [9]), the “Imax, portal” value was 1.23 ng/mL. For the same molecule, the “I max, portal, u” value in data set [3] (setting [10]) is listed as 0.0021 µM. The Km at human OCT1 (hOCT1) is 1.8 µM. Moreover, the “increase in systemic exposure in individuals homozygous for OCT1 loss-of-function genetic variants” value with OCT1 [4] is 2 fold. Besides, in data set [5], the “cmax = Imax” value is 1.23 ng/mL, the unbound share (fraction unbound) was 0.53 and the t1/2 is on record as 1.27 h.

On to `CC(C)[N+]1(C)[C@@H]2CC[C@H]1C[C@@H](OC(=O)C(CO)c1ccccc1)C2` (stereo partly shown) [Ipratropium, ipratropium], for which the “Imax, portal” value in data set [3] (setting [9]) was 0.08 ng/mL. In addition, the “I max, portal, u” value in [3] (setting [10]) is recorded as 0.0002 µM.

As to `C[N+](C)(C)[C@@H](Cc1c[nH]c(=S)[nH]1)C(=O)[O-]` [L-ergothioneine], at human OCTN1 (hOCTN1), the “transport by OCTN1” value is “transported both L-carnitine and L-ergothioneine”.

In the case of `C[N@+]1(CC2CC2)CC[C@]23c4c5ccc(O)c4O[C@H]2C(=O)CC[C@@]3(O)[C@H]1C5` [Methylnaltrexone, methylnaltrexone], the Km in the data set with mOct1 is 8.61 µM; at human OCT1 (hOCT1), 15.2 µM.

For `CC(C)(C)NCC(O)c1ccc(O)c(CO)c1` (stereo not shown) [Salbutamol, salbutamol], the results for the Michaelis constant (Km) in the data set on mOct1 and on human OCT1 (hOCT1) were 52.2 µM and 310 µM, respectively. The “uptake stronger in mouse than in human OCT1” value on mouse OCT1 (ratio mouse/human) was determined as 4.5 fold.

For the molecule `COc1cc(Cc2cnc(N)nc2N)cc(OC)c1OC` [Trimethoprim, trimethoprim], in [3] (human, in vivo), the “I max, portal, u” value is reported as 8.53 µM; the “Imax, portal” value is listed as 3932 ng/mL; the ka was 1.66 h⁻¹. For the same molecule, in data set [3] (human, in vivo, po), the k el was 1.92e-05 s⁻¹. In addition, the IC50 in the data set with OCT1 [6] was […]. In addition, in data set [5], the “cmax = Imax” value is listed as 1200 ng/mL, the fraction unbound is 0.63 and the t1/2 is 10.00 h. In addition, in data set [5] (p.o., ref Hardman, 2018), the tmax is recorded as 2.00 h.

With `COc1ccc(CCN(C)CCCC(C#N)(c2ccc(OC)c(OC)c2)C(C)C)cc1OC` (stereo not shown) [Verapamil, verapamil], in data set [3] (setting [9]), the “Imax, portal” value was 3550 ng/mL. In [3] (first-order absorption rate constant, calculated manually from available pharmacokinetic parameters), the ka is 2.65 h⁻¹.

Regarding `CN(C)CCc1c[nH]c2ccc(C[C@H]3COC(=O)N3)cc12` [Zolmitriptan, zolmitriptan], on OCT1 [2] (cocktail, fold change to the negative control, n = 12), the “human OCT1 uptake [fold change to pcDNA5]” value is 6.6 fold change to pcDNA5. Further, the Michaelis constant (Km) at human OCT1 (hOCT1) is 105 µM. Besides, on mouse OCT1 (fold change to the negative control, n = 12), the “mouse Oct1 uptake [fold change to pcDNA5]” value is reported as 7.6 fold change to pcDNA5.

B1: human OCT1 (hOCT1) (Homo sapiens) (protein)
chain: T1 sequence (O15245 1-554)
notes: expressed in transfected cells; empty vector control pcDNA5
On to B1, for which the Michaelis-Menten constant (Km) in data set [7] (setting [11]) is recorded as 16.9 ± 2.46 µM; in [7] (setting [12]) it was 13.9 ± 1.61 µM; in data set [8] (setting [11]) it was 0.94 ± 0.24 µM; in data set [8] (setting [12]), 0.95 ± 0.38 µM. Besides, the results for the Vmax in data set [7] (setting [11]) and in data set [7] (setting [12]) were 0.000647 µmol/min/mg and 0.000637 µmol/min/mg, respectively.
